The record followed here is patent publication US10946019B2, “Nurr1:RXR activating compounds for simultaneous treatment of symptoms and pathology of Parkinson's disease” (priority 2015, dated 2021).

In one series the target is Nurr1:RXRα heterodimer (Homo sapiens (Human), UniProt P19793). Put plainly: Nurr1:RXRα-dependent luciferase reporter (DR5-TK-Luc) transactivation assay. The series is classed as cell-based. The note with it: SHSY-5Y cells co-transfected with human Nurr1, RXRα and DR5-TK-Luc. (In general: In a reporter assay the amount or activity of a reporter protein is the signal.)
Series [1] deals with SHSY-5Y dopaminergic cells. Put plainly: MPP+ induced cell death, MTT assay. It counts as cell-based, human. Particulars: 12.5 μM, varying concentrations of MPP+. Here is the method: MPP+, eradicates approximately 75% of the cells in 24 hours. […] Naive Neuro2A cells (FIG. 2A) or SH-SY5Y neuroblastoma cells FIG. 2B,C) were cultured in RPMI 1640, 10% fetal bovine serum at 37° C. Cells were pretreated with compound 3 for 12-24 h. Subsequent change of culture medium with addition of 0, 1, 2 and 4 mM MPP+ induced cell death. MTT assays determined the relative number of surviving cells FIG. 2D).
Such assays were performed, for instance, by adding compound 46 (12.5 μM) to human origin SHSY-5Y dopaminergic cells in which death was induced by the mitochondria complex I inhibitor MPP+ (1-methyl-4-phenylpyridinium), the active metabolite of MPTP (1-methyl-4-phenyl-1,2,3,6-tetrahydropyridine). […] Most of the MPP+-treated cells receiving vehicle died, while the few surviving cells remained attached to the plate but were rounded and had lost all projections. These morphological changes indicated impaired neuronal function. On the contrary, cells treated with compound 46 appeared healthy, flattened, well-attached, and their projections remained intact.
We examined the neuroprotective capability of Nurr1:RXRα heterodimer activation in SHSY-5Y cells where death was induced by either the oxidative stress related H2O2 or the mitochondria complex I inhibitor MPP+ (1-methyl-4-phenylpyridinium) (FIG. 72B). […] The protection conferred by compound 3 was Nurr1-dependent, since it was abrogated by knocking-down endogenous Nurr1 mRNA (FIGS. 1E and 72D). The neuroprotective effects of compound 3 extend to damage induced by the PD-associated mutation G2019S in the Leucine-Rich Repeat Kinase 2 (LRRK2) gene, the most common genetic defect associated with clinical PD (Tofaris et al. J. Neurosci. 26:3942-3950, 2006). Rat cortical neurons, co-transfected with CMV-GFP for identification, and CMVLRRK2-G2019S cDNAs show increased apoptosis as assessed by DAPI staining, compared to control neurons co-transfected with a LRRK2 wt cDNA.
Background: Formazan colour is commonly taken as a measure of viable cells.

The nature of series [2]: Plasma and brain concentrations by LC-MS/MS after IP administration to mice. The series is classed as in vivo, mouse. Here is the method: FIGS. 68A and 68B show the pharmacokinetic profile of XCT in blood plasma and in the brain of mice injected with this compound. […] Serial tail bleeds (n=3) were used for detection of the compound in plasma 1 and 2 hours after IP administration. Similarly, mice (n=3) were sacrificed 1 and 2 hours after IP administration and brains were dissected. The concentrations of the parent compound in plasma and brain were determined by LC-MS/MS.
The concentrations of the parent compound in plasma and brain were determined by LC/MSMS.
XCT0135908 was administered to mice to test its bioactivity.

In another series the test system is c-jun. Put plainly: Midbrain c-jun expression by qPCR after administration to mice. The series is classed as in vivo, mouse. Here is the method:
FIGS. 69A-69C show the brain penetration, half-life, and c-jun transcriptional activation of compound 3. […] Mice (n=5) were sacrificed 1, 2, 4, 8 and 24 hours after IP administration and brains were dissected 1, 2, 4, 8 and 24 hours post administration. The concentrations of the parent compound in plasma and brain were determined by LC/MSMS.
(§1) To assess the neuroprotective effect of compound 3, this compound was dosed to wt mice intraperitoneally (IP) at 10 mg/kg injections of compound 3 in Ethanol:PG:Saline 10:30:60. After 2 h and 4 h animals (n=3 per time point) were sacrificed, and their brains obtained. After extraction c-jun and tyrosine hydroxylase (TH) levels in brain extract were determined by qPCR (FIG. 1E, 1F).
(In qPCR the cycle at which signal appears reflects the starting amount.)

Series [3] has as its system tyrosine hydroxylase (TH). Put plainly: Midbrain tyrosine hydroxylase expression by qPCR after administration to mice. It counts as in vivo, mouse. The note with it: mice, IP or intracerebroventricular 1 and 10 mg/kg, different time points. The method, then: as §1
Given the role of Nurr1:RXRα activation in the transcriptional regulation of DA biosynthesis genes, we tested whether compound 3 could increase DA levels in wt and ASYN transgenic mice (Tofaris et al. J. Neurosci. 26:3942-3950, 2006), which display reduced striatal DA levels after reaching adulthood. […] Aiming to model PD based on human genetic data, we also tested whether compound 3 could increase DA levels in ASYN transgenic mice. A single IP injection of compound 3 (10 mg/kg) was able increase striatal DA (t test p=0.01069) and DA metabolite levels in ASYN transgenics as well (FIG. 75C) in comparison to mice receiving vehicle.

The next series concerns the target Nur77:RXRα heterodimers (Homo sapiens (Human), UniProt P19793). Put plainly: Relative activation of Nurr1 and Nur77 in a luciferase reporter assay. It counts as cell-based. Particulars: FIG. 67.

Structures are written as SMILES. A value given as a limit tells only on which side of the number the result lay.

Chain of Nurr1:RXRα heterodimer (P19793 whole entry): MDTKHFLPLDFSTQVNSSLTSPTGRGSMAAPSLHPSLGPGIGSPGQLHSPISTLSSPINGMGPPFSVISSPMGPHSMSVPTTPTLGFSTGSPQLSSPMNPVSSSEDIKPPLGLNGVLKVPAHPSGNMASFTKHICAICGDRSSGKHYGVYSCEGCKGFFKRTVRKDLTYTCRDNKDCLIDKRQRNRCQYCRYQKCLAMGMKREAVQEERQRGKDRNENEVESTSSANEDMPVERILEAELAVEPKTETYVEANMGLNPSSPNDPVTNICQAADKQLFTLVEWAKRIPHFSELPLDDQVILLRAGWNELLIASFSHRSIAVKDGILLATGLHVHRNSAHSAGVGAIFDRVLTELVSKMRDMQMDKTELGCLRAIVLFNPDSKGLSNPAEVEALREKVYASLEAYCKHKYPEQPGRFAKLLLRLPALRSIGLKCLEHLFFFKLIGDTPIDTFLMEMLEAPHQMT
Chain of Nurr1:RXRα heterodimer (P43354 whole entry partner): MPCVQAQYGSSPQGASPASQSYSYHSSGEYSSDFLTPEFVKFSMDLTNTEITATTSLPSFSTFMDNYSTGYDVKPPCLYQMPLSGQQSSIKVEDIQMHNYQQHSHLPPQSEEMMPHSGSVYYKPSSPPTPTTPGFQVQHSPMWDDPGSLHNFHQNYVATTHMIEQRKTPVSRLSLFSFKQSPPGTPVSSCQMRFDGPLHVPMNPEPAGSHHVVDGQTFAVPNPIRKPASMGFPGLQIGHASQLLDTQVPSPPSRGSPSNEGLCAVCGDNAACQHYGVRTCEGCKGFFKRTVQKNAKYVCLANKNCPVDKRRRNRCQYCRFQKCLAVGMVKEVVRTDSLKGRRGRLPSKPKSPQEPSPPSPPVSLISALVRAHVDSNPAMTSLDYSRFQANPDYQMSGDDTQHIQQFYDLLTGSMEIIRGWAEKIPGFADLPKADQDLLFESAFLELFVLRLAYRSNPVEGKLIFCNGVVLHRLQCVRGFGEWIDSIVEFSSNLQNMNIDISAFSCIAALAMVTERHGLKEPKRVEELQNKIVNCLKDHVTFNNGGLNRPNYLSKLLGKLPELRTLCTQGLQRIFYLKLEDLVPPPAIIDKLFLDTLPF
Chain of Nur77:RXRα heterodimers (P19793 whole entry, looked up): as the sequence (P19793 whole entry) above
Chain of Nur77:RXRα heterodimers (P22736 whole entry partner, looked up): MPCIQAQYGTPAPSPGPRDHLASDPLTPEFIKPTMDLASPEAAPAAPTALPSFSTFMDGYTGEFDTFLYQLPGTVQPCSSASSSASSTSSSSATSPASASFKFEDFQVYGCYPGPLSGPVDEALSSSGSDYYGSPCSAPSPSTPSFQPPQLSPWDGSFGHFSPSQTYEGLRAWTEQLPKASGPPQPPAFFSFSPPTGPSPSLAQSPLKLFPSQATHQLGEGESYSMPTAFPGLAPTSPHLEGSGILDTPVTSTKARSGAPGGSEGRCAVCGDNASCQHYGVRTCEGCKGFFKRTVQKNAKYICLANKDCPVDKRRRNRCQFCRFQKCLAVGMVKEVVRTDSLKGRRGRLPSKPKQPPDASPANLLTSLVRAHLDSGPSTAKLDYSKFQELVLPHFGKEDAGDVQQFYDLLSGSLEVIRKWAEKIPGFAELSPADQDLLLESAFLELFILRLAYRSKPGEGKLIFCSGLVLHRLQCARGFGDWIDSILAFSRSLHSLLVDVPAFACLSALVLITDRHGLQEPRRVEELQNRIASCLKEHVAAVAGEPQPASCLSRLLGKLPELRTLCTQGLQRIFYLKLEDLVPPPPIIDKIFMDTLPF
Method for Nurr1:RXRα heterodimer: The in vitro transactivation assay determined the capacity of the compounds of the invention to activate the Nurr1:RXR heterodimers. Naive SHSY-5Y cells were transiently co-transfected, using Lipofectamine 2000 (Invitrogen), with a plasmid expressing the human receptor Nurr1, a plasmid expressing the RXR human receptor (RXRα or RXRγ receptor) and a reporter plasmid DR5-TK-Luc. […] After incubation overnight, the expression of luciferase was measured (FIG. 1A).

Regarding `C=CCc1c(C)nc(-c2ccccc2)nc1Nc1ccc(C(=O)OCOC(=O)C(C)(C)C)cc1` [Example 30, pivaloyloxymethyl 4-(5-allyl-6-methyl-2-phenylpyrimidin-4-ylamino)benzoate], at Nurr1:RXRα heterodimer, the response was half-maximal at 2000 nM (EC50).
Turning to `C=CCc1c(C)nc(-c2ccccc2)nc1Nc1ccc(C(=O)Oc2ccc(C[C@H](N)C(=O)O)cc2)cc1` [Example 31, (S)-2-(4-(4-(5-allyl-6-methyl-2-phenylpyrimidin-4-ylamino)benzoyloxy)phenyl)-1-carboxyethanaminium chloride], it took 10000 nM to reach a half-maximal effect on Nurr1:RXRα heterodimer (EC50).
The same measure, in the same setting: the result for `C=CCc1c(C)nc(-c2ccccc2)nc1Nc1ccc(C(=O)OCCCOc2ccc(C[C@H](N)C(=O)O)cc2)cc1` [Example 32, (S)-2-(4-(3-(4-(5-allyl-6-methyl-2-phenylpyrimidin-4-ylamino)benzoyloxy)propoxy)phenyl)-1-carboxyethanaminium chloride] reads 5000 nM; that for `Cc1nc(-c2ccccc2)nc2c1cc(C)n2-c1ccc(C(=O)O)cc1` [Example 45, 4-(4,6-dimethyl-2-phenyl-7H-pyrrolo[2,3-d]pyrimidin-7-yl)benzoic acid], 2500 nM.
As to `Cc1nc(-c2ccccc2)nc2c1cc(C)n2-c1ccc(C(=O)O)cc1Br` [Example 46, 3-bromo-4-(4,6-dimethyl-2-phenyl-7H-pyrrolo[2,3-d]pyrimidin-7-yl)benzoic acid], the “cell survival against MPP+” value in series [1] is on record as “significantly increased the survival of cells”. Further, in series [2] (mouse, in vivo, ip), the bioavailability result is given as “highly bioavailable” and the brain penetration result was “capable of crossing the blood brain barrier”. Further, the “c-jun transcriptional activation in the midbrain” value in the series with c-jun (IP compound 46, qPCR 2 hours after administration) is recorded as “significant c-jun transcriptional activation”. Moreover, the EC50 at Nurr1:RXRα heterodimer was 700 nM.
Take `C=CCc1c(C)nc(-c2ccccc2)nc1Nc1ccc(C(=O)O)cc1` [XCT0135908, reference compound]: in series [3], the “midbrain TH expression” value is listed as “did not result in any expression alterations”. The “compound stability in vivo” value in series [2] (mice, 1 and 2 hours after IP, plasma and brain homogenates) is given as “low compound stability”. Further, the brain penetration result in series [2] (mice, IP administration) is given as “minimal brain penetration”. This compound also gave a Kp in series [2] (mouse, brain homogenate / blood plasma, mice, 1 and 2 hours after IP XCT (printed 1 μg/kg), LC-MS/MS) of less than 0.03. Further, the midbrain c-jun expression entry in the series with c-jun (IP or intracerebroventricular 1 and 10 mg/kg, different time points) is given as “did not result in any expression alterations”. In addition, the “relative activation of Nur77:RXRα vs Nurr1:RXRα heterodimers” value on Nur77:RXRα heterodimers is “preferentially activates Nur77:RXRα heterodimers and not Nurr1:RXRα heterodimers”.

For orientation: EC50 means the concentration that produces a half-maximal response. As usually defined, the Kp is tissue or fluid exposure divided by exposure in the circulation.
